Assay [1] has as its target mKRb, B1-type ketoreductase (KR) domain from module 7 of MLSB of the mycolactone polyketide synthase (Mycobacterium ulcerans). In words: ITC; ACP species injected into a solution of the KR domain in the presence of excess NADPH; three repeat experiments.
Assay [2] has the same target. In words: ITC; ACP species titrated against the KR domain in the presence of excess NADP+ (oxidised cofactor); three repeat experiments. A general note: Isothermal titration calorimetry measures the heat released or taken up as one component is titrated into another.
A further assay has as its target T1, mKRa (Mycobacterium ulcerans, UniProt Q6MZA4).
T1 construct: gene mlsA1; excised A1-type ketoreductase domain of module 5 of MLSA1; recombinant, purified
In words: isothermal titration calorimetry. In kind it is binding. From the text:
isothermal titration calorimetry on mKRa

A further assay has as its target T2, mKRb (Mycobacterium ulcerans, UniProt Q6MZ72).
T2 construct: gene mlsB; excised B1-type ketoreductase domain of module 7 of MLSB; recombinant, purified
In words: isothermal titration calorimetry. In kind it is binding. The source says:
isothermal titration calorimetry on mKRb

For the compound “β-Hydroxybutyryl-mACPb (1c) (domain or fragment)”, the Kd in assay [1] came out at 0.27 µM.
Turning to holo mACPb (1a) (domain or fragment), the Kd in assay [2] was found to be 0.75 µM; in assay [1] it was 0.61 µM. The stoichiometry N in assay [1] stood at 1.
Consider `NCCS` [compound 5, Cysteamine], for which the Kd on mKRa and on mKRb was more than 1000 µM throughout.
On to holo mACPa (1a) (domain or fragment), for which the Kd in assay [1] was 0.63 µM.
With `CC(C)(CO)[C@@H](O)C(=O)NCCC(=O)NCCS` [compound 2, R-Pantetheine], the Kd at mKRa was found to be 1.1 ± 0.04 µM; at mKRb, 1.2 ± 0.3 µM.
On to “apo mACPa, acyl carrier protein domain cognate to mKRa (module 5 of MLSA1), apo form (domain or fragment)”, for which the Kd in assay [1] is 2.2 µM.
Consider “Acetoacetyl-mACPb (1b) (domain or fragment)”, for which, in assay [2], the Kd was 0.38 µM.
`CC(=O)NCCS` [compound 7, N-Acetyl cysteamine]: the Kd at mKRa came to 1.03 ± 0.02 µM; on mKRb it was 1.4 ± 0.3 µM.
Taken in the same sequence, the figures for `NCCC(=O)O` [compound 6, β-Alanine] were 0.97 ± 0.04 µM and 0.5 ± 0.09 µM.
The like results for `CC(C)(CO)[C@@H](O)C(=O)NCCC(=O)O` [compound 3, Pantothenate] were, in that order, 0.7 ± 0.13 µM and 0.7 ± 0.1 µM.
In the case of `CC(C)(CO)[C@@H](O)C(=O)O` [compound 4, Pantoate], the results for the Kd on mKRa and at mKRb were more than 1000 µM and 0.6 ± 0.1 µM, respectively.
Take “apo mACPb, acyl carrier protein domain cognate to mKRb (module 7 of MLSB), apo form (domain or fragment)”: the dissociation constant Kd in assay [2] was determined as 2.2 µM; in assay [1], 2.6 µM.

Usually Kd stands for the equilibrium constant for the complex coming apart. In general, stoichiometry N refers to a count of units in the complex or per binding partner.

Values taken from article PMC6038798, “Dissecting how modular polyketide synthase ketoreductases interact with acyl carrier protein-attached substrates” (Chemical Communications (Cambridge, England), 2017).
